Data as given in patent publication EP1285920A1, “C10 Ester sustituted taxanes as antitumor agents” (Florida State University Research Foundation, Inc., priority 2001, dated 2003).
Where two headings read alike, the source gives them in different places.

Tests used:
HCT116 = assay: In Vitro cytotoxicity measured by the cell colony formation assay; format: cell-based, human; conditions: Homo sapiens, HCT-116; read-out: IN VITRO ID 50 HCT116
Method in brief: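 Four hundred cells per dish in McCoy's 5a medium with 10% FBS were allowed to attach for 5 h at 37 °C. They were then exposed to compound for 72 h at 37 °C, added as a 10× stock made fresh in medium. After HBSS rinsing and refeeding, colonies were counted after 7 days.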

MX-1 carcinoma = system: MX-1 carcinoma
Method in brief: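 Mice dosed with a single i.v. bolus (qd x 1) at each compound's MTD, formulated in 5% ethanol, 5% Cremophor, 90% isotonic saline. Study ended Day 60; complete response = tumor not palpable at study end.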

DU145 prostate carcinoma = conditions: for Toxic Deaths: i.v. qd x 1 at estimated MTD (Taxol 24 mg/kg as two split doses)
Excerpt: Dosing was initiated on Day 1. […] Treatment groups are detailed in Table 5.

VM46 colon carcinoma = conditions: for Toxic Deaths / Complete Response / Partial Response / Stable Disease / Survivors: i.v. qd x 1; for Complete Response / Partial Response / Stable Disease / Survivors: Day 64
Experimental: Dosing was initiated on Day 1. […] Taxotere was given i.v. at a dose of 70 mg/kg on a qd x 1 schedule.

[1] = system: Panc-1 pancreatic carcinoma; assay: In vivo evaluation against Panc-1 human pancreatic carcinoma (Example 17); conditions: for MDS: i.v. qd x 1 (compounds estimated MTD; Taxol 36 mg/kg split), days until tumor 1.5 g, ended Day 60; for MDS (n): mean days of survival until neoplasm reached 1.5 g, terminated Day 60; for Mean Score: tumor scoring system
Experimental: The dosing volume was 0.3 ml per 20 g mouse.
Female NCr-nude mice were implanted subcutaneously with 1 mm^3 Panc-1 pancreatic carcinoma fragments in the flank and sorted into treatment groups of six mice each. […] Dosing was initiated on Day 1. The antitumor compounds were given i.v. at an estimated maximum tolerated dose (MTD) appropriate for each agent on a qd x 1 schedule (single administration of compound). […] The vehicle was administered i.v. to control mice in Group 1 on the qd x 1 schedule. The study was terminated on Day 60.
The mean days of survival is the number of days after which a neoplasm reached a size of 1.5 g and the animal was euthanized. A complete response is obtained if the tumor shrinks to a size smaller than its size on Day 1 of the study.

A375 melanoma = system: A375 melanoma
Experimental: Dosing was initiated on Day 1. […] Taxotere was given i.v. on a qd x 1 schedule at a dose of 70 mg/kg. […] The study was terminated on Day 60. Treatment groups are detailed in Table 9.

HCT116 carcinoma = system: HCT116 carcinoma
Method in brief: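 Mice bearing HCT116 tumours received a single i.v. maximum tolerated dose per compound, formulated in 5% ethanol, 5% Cremophor, 90% isotonic saline. Study ended on Day 60; complete response meant no palpable tumour at study end.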

[2] = number of 5 mice, i.v. qd x 1 at estimated MTD (Taxol 24 mg/kg split), Day 91
[3] = number of mice, mg/kg: Taxol 24, 0499 77, 0503 72.6, 0670 123.1, 0706 107.6, 0838 72.6, 0854 46.6, 0983 67.4, Taxotere 70, 6 mice/group
[4] = Panc-1 (Example 17), i.v. qd x 1, six mice per group
[5] = i.v. qd x 1, mg/kg: Taxol 36, 0499 77, 0503 72.6, 0670 123.1, 0706 107.6, 0838 72.6, 0854 76.9, 6 mice/group
[6] = number of mice, i.v. qd x 1, mg/kg: Taxol 36, 0499 77, 0503 72.6, 0670 123.1, 0706 107.6, 0838 72.6, 0854 76.9, 6 mice/group
[7] = number of mice, i.v. qd x 1, mg/kg: Taxol 36, 0499 77, 0503 72.6, 0670 123.1, 0706 107.6, 0838 72.6, 0854 76.9, 6 mice/group, Day 60
[8] = number of mice, i.v. qd x 1 at estimated MTD (Taxol 24 mg/kg, Taxotere 70 mg/kg), 6 mice/group (Taxotere 7)
[9] = number of mice, i.v. qd x 1 at estimated MTD (Taxol 24 mg/kg, Taxotere 70 mg/kg), 6 mice/group (Taxotere 7), Day 60

Row | Compound | Toxic Deaths (DU145 prostate carcinoma; number of 5 mice, Day 91) | Survivors (DU145 prostate carcinoma; [2]) | Toxic Deaths (VM46 colon carcinoma; [3]) | Complete Response (VM46 colon carcinoma; [3]) | Partial Response (VM46 colon carcinoma; [3]) | Stable Disease (VM46 colon carcinoma; [3]) | Survivors (VM46 colon carcinoma; [3]) | MDS ([1]; Panc-1 (Example 17)) | Toxic Deaths [1, 4] | MDS (n) [1, 5] | Toxic Deaths [1, 6] | Complete Response [1, 7] | Partial Response [1, 7] | Stable Disease [1, 7] | Mean Score [1, 5] | Toxic Deaths (A375 melanoma; [8]) | Survivors (A375 melanoma; [9]) | further results
1 | CCC(=O)O[C@H]1C(=O)[C@@]2(C)[C@H]([C@H](OC(=O)c3ccccc3)[C@]3(O)C[C@H](OC(=O)[C@H](O)[C@@H](NC(=O)c4ccccc4)c4ccoc4)C(C)=C1C3(C)C)[C@]1(OC(C)=O)CO[C@@H]1C[C@@H]2O [Compound 0670] | 0 | 4 | 0 | 0 | 1 | 0 | 1 | 47 to 56 days | One | 51.2 ± 5.9 (2) days | 1 | 1 | 0 | 2 | 4.2 ± 1.7 | 0 | 0 | IC50 (HCT116): < 1 nM; Partial Response (MX-1 carcinoma; iv): 1; Complete Response (MX-1 carcinoma; iv, 1440 h): 1; MDS (n) (MX-1 carcinoma; iv, 1440 h): 28.5 ± 6.1 (4) days; Mean Score (MX-1 carcinoma; iv, 1440 h): 4.3 ± 1.6; Stable Disease (MX-1 carcinoma; iv, 1440 h): 0; Survivors (MX-1 carcinoma; number of 6 mice, i.v. qd x 1 at MTD, Day 60, doses as in E17): 2; Toxic Deaths (MX-1 carcinoma; number of 6 mice, i.v. qd x 1 at MTD, Day 60, mg/kg: Taxol 36 (split dose), 0503 72.6, 0536 49, 0663 159, 0670 123, 0687 159, 0706 108, 0908 159, 0947 76.9, 0951 72.6, 0983 67.4, 0999 49, 1003 49, 1011 108): 0; total response rate (DU145 prostate carcinoma; iv): 20-50%; response rate (VM46 colon carcinoma; VM46, i.v. qd x 1 at estimated MTD): 16.7-40%; Mean Score (VM46 colon carcinoma; iv): 2.8 ± 1.2; MDS (n) (VM46 colon carcinoma; iv, 1536 h): 40.1 ± 5.8 (5) days; Partial Response (HCT116 carcinoma; iv): 1; Complete Response (HCT116 carcinoma; iv, 1440 h): 2; MDS (n) (HCT116 carcinoma; iv, 1440 h): 29.8 ± 0.7 (2) days; Mean Score (HCT116 carcinoma; iv, 1440 h): 6.6 ± 1.9; Stable Disease (HCT116 carcinoma; iv, 1440 h): 0; Survivors (HCT116 carcinoma; number of 5 mice, i.v. qd x 1 at MTD, Day 60, doses as in E3): 3; Toxic Deaths (HCT116 carcinoma; number of 5 mice, i.v. qd x 1 at MTD, Day 60, mg/kg: Taxol 36 (split doses), 0503 72.6, 0536 49, 0663 159, 0670 123, 0687 159, 0706 108, 0908 159, 0947 76.9, 0951 72.6, 0983 72.6, 0999 49, 1003 49, 1011 108): 0
2 | CC(=O)O[C@@]12CO[C@@H]1C[C@H](O)[C@@]1(C)C(=O)[C@H](OC(=O)C3CC3)C3=C(C)[C@@H](OC(=O)[C@H](O)[C@H](C=C(C)C)NC(=O)OC(C)(C)C)C[C@@](O)([C@@H](OC(=O)c4ccccc4)[C@H]21)C3(C)C [Compound 0838] | 0 | 4 | 0 | 0 | 1 | 3 | 4 | 47 to 56 days | One | 54.2 ± 0.9 (2) days | 1 | 0 | 2 | 3 | 3.6 ± 1.1 | 0 | 1 | antitumor activity (DU145 prostate carcinoma; DU145, i.v. qd x 1): active; complete responses (DU145 prostate carcinoma; DU145, i.v. qd x 1, five mice per group): 2; Mean Score (DU145 prostate carcinoma; i.v. qd x 1 at estimated MTD (Taxol 24 mg/kg split), 5 mice/group, Day 91): 7 ± 1.5; Stable Disease (DU145 prostate carcinoma; number of 5 mice, tumor did not reach 1.5 g by end of study, i.v. qd x 1 at estimated MTD (Taxol 24 mg/kg split), Day 91): 1; Complete Response (DU145 prostate carcinoma; [2]): 2; Partial Response (DU145 prostate carcinoma; [2]): 1; Toxic Deaths (VM46 colon carcinoma; VM46, six mice per group): no toxic deaths; Survivors [1, 7]: 3; survival extension compared to Group 1 controls (A375 melanoma; A375, i.v. qd x 1): 133%; MDS (n) (A375 melanoma; mean days of survival until neoplasm reached 2.0 g, i.v. qd x 1 at estimated MTD (Taxol 24 mg/kg, Taxotere 70 mg/kg), 6 mice/group (Taxotere 7), terminated Day 60): 33.5 ± 3.4 (5) days; Complete Response (A375 melanoma; [9]): 1; Partial Response (A375 melanoma; [9]): 0; Stable Disease (A375 melanoma; [9]): 0; Mean Score (A375 melanoma; tumor scoring system, i.v. qd x 1 at estimated MTD (Taxol 24 mg/kg, Taxotere 70 mg/kg), 6 mice/group (Taxotere 7)): 3.8 ± 1.2
